Values after ≈ are worked out from the molar mass of the structure shown. Active and inactive are the calls of the source. The calls are words filed in the database; no cut-off is given here. Non-standard residues stand in square brackets, D forms with d. Residues, ends and D or L forms follow the SMILES beside them. ξ: configuration not given here. ξY = NC(Cc1ccc(O)cc1)C(=O)O; ξR = N=C(N)NCCCC(N)C(=O)O; ξD = NC(CC(=O)O)C(=O)O; ξN = NC(=O)CC(N)C(=O)O; Nleu = CC(C)CNCC(=O)O; ξI = CCC(C)C(N)C(=O)O; ξL = CC(C)CC(N)C(=O)O; Nlys = NCCCCNCC(=O)O; ξK = NCCCCC(N)C(=O)O; ξV = CC(C)C(N)C(=O)O; ξP = O=C(O)C1CCCN1
How the values were obtained:
[1] = tested on: Klebsiella pneumoniae; assay: Antimicrobial activity against Klebsiella pneumoniae NCTC 418 incubated for 16 to 20 hrs in full muller hinton medium by broth microdilution method; assay type: functional; conditions: time 16-20 hrs
[2] = tested on: Pseudomonas aeruginosa; assay: Antimicrobial activity against Pseudomonas aeruginosa PAO1 incubated for 16 to 20 hrs in full muller hinton medium by broth microdilution method; assay type: functional; conditions: time 16-20 hrs
[3] = tested on: Staphylococcus aureus; assay: Antimicrobial activity against methicillin-resistant Staphylococcus aureus COL incubated for 16 to 20 hrs in full muller hinton medium by broth microdilution method; assay type: functional; conditions: time 16-20 hrs
[4] = tested on: Escherichia coli; assay: Antimicrobial activity against Escherichia coli W3110 incubated for 16 to 20 hrs in 12.5 % muller hinton medium by broth microdilution method; assay type: functional; conditions: time 16-20 hrs
[5] = tested on: Klebsiella pneumoniae; assay: Antimicrobial activity against Klebsiella pneumoniae NCTC 418 incubated for 16 to 20 hrs in 12.5 % muller hinton medium by broth microdilution method; assay type: functional; conditions: time 16-20 hrs
[6] = tested on: Pseudomonas aeruginosa; assay: Antimicrobial activity against Pseudomonas aeruginosa PAO1 incubated for 16 to 20 hrs in 12.5 % muller hinton medium by broth microdilution method; assay type: functional; conditions: time 16-20 hrs
[7] = tested on: Staphylococcus aureus; assay: Antimicrobial activity against methicillin-resistant Staphylococcus aureus COL incubated for 16 to 20 hrs in 12.5 % muller hinton medium by broth microdilution method; assay type: functional; conditions: time 16-20 hrs
[8] = Hemolytic activity in human RBC incubated for 4 hrs; assay type: toxicity, cell-based; conditions: erythrocyte
[9] = tested on: rRNA; assay: Binding affinity to [gamma32 P-ATP] labeled Escherichia coli MG1655 23S ribosomal RNA (5-CCCTTGGGACCTACTTC-3') at U2506 position assessed as increase in band intensity at 1 uM incubated for 2.5 hrs in full muller hinton medium by CMCT based gel electrophoresis; assay type: nucleic-acid assay
[10] = tested on: Pseudomonas aeruginosa; assay: Antibacterial activity against multidrug-resistant Pseudomonas aeruginosa PA14 incubated for 16 to 20 hrs in full muller hinton medium by broth microdilution method; assay type: functional; conditions: time 16-20 hrs
[11] = tested on: Pseudomonas aeruginosa; assay: Antibacterial activity against multidrug-resistant Pseudomonas aeruginosa PA14 4.13 harboring phoQ mutant incubated for 16 to 20 hrs in full muller hinton medium by broth microdilution method; assay type: functional; conditions: time 16-20 hrs
[12] = tested on: Pseudomonas aeruginosa; assay: Antibacterial activity against multidrug-resistant Pseudomonas aeruginosa PA14 4.18 harboring pmrB mutant incubated for 16 to 20 hrs in full muller hinton medium by broth microdilution method; assay type: functional; conditions: time 16-20 hrs
[13] = tested on: Pseudomonas aeruginosa; assay: Antibacterial activity against multidrug-resistant Pseudomonas aeruginosa PA14 2P4 harboring pmrB mutant incubated for 16 to 20 hrs in full muller hinton medium by broth microdilution method; assay type: functional; conditions: time 16-20 hrs
[14] = tested on: Pseudomonas aeruginosa; assay: Antibacterial activity against multidrug-resistant Pseudomonas aeruginosa clinical isolate ZEM-1A incubated for 16 to 20 hrs in full muller hinton medium by broth microdilution method; assay type: functional; conditions: time 16-20 hrs
[15] = tested on: Pseudomonas aeruginosa; assay: Antibacterial activity against multidrug-resistant Pseudomonas aeruginosa clinical isolate ZEM-1A incubated for 16 to 20 hrs in 12.5 % muller hinton medium by broth microdilution method; assay type: functional; conditions: time 16-20 hrs
[16] = tested on: Pseudomonas aeruginosa; assay: Antibacterial activity against multidrug-resistant Pseudomonas aeruginosa clinical isolate ZEM9A incubated for 16 to 20 hrs in full muller hinton medium by broth microdilution method; assay type: functional; conditions: time 16-20 hrs
[17] = tested on: Klebsiella pneumoniae; assay: Antibacterial activity against multidrug-resistant Klebsiella pneumoniae clinical isolate OXA-48 incubated for 16 to 20 hrs in full muller hinton medium by broth microdilution method; assay type: functional; conditions: time 16-20 hrs
[18] = tested on: Klebsiella pneumoniae; assay: Antibacterial activity against multidrug-resistant Klebsiella pneumoniae clinical isolate OXA-48 incubated for 16 to 20 hrs in 12.5 % muller hinton medium by broth microdilution method; assay type: functional; conditions: time 16-20 hrs
[19] = tested on: Enterobacter cloacae; assay: Antibacterial activity against multidrug-resistant Enterobacter cloacae incubated for 16 to 20 hrs in full muller hinton medium by broth microdilution method; assay type: functional; conditions: time 16-20 hrs
[20] = tested on: Escherichia coli; assay: Antimicrobial activity against Escherichia coli W3110 incubated for 16 to 20 hrs in full muller hinton medium by broth microdilution method; assay type: functional; conditions: time 16-20 hrs
[21] = tested on: Acinetobacter baumannii; assay: Antimicrobial activity against Acinetobacter baumannii ATCC 19606 incubated for 16 to 20 hrs in 12.5 % muller hinton medium by broth microdilution method; assay type: functional; conditions: time 16-20 hrs
[22] = tested on: Acinetobacter baumannii; assay: Antimicrobial activity against Acinetobacter baumannii ATCC 19606 incubated for 16 to 20 hrs in full muller hinton medium by broth microdilution method; assay type: functional; conditions: time 16-20 hrs

Compound | MIC [1] [mg/L] | MIC [2] [mg/L] | MIC [3] [mg/L] | MIC [4] [mg/L] | MIC [5] [mg/L] | MHC [8] [µg/mL] | MIC [10] [mg/L] | MIC [11] [mg/L] | MIC [12] [mg/L] | MIC [13] [mg/L] | MIC [14] [mg/L] | MIC [16] [mg/L] | MIC [17] [mg/L] | MIC [18] [mg/L] | MIC [19] [mg/L] | MIC [21] [mg/L] | further results
CC[C@H](C)[C@H](NC(=O)[C@H](CCCNC(=N)N)NC(=O)C(CCCNC(=N)N)NC(=O)C1CCCN1C(=O)C1CCCN1C(=O)C(CCCNC(=N)N)NC(=O)C1CCCN1C(=O)C(CCCNC(=N)N)NC(=O)C1CCCN1C(=O)C(CC(C)C)NC(=O)C(Cc1ccc(O)cc1)NC(=O)C1CCCN1C(=O)C1CCCN1C(=O)C(CCCCN)NC(=O)C(CC(=O)O)NC(=O)C(N)C(C)C)C(=O)N[C@@H](Cc1ccc(O)cc1)C(=O)N[C@@H](CC(N)=O)C(=O)N[C@@H](CCCNC(=N)N)C(N)=O (some centres undefined) (H-[ξV][ξD][ξK][ξP][ξP][ξY][ξL][ξP][ξR][ξP][ξR][ξP][ξP][ξR]RIYNR-NH2) | > 64 | > 64 | > 64 | 4 (≈ 1.67 µM) | > 16 | > 1000 | > 64 | > 64 | > 64 | > 64 | > 64 | > 64 | > 64 | > 64 | > 64 |  | MIC [6]: > 16 mg/L; MIC [7]: > 64 mg/L; Activity [9]: inactive; MIC [15]: > 64 mg/L
CCC(C)C(NC(=O)C(CCCNC(=N)N)NC(=O)[C@H](CCCNC(=N)N)NC(=O)[C@@H]1CCCN1C(=O)[C@@H]1CCCN1C(=O)[C@H](CCCNC(=N)N)NC(=O)[C@@H]1CCCN1C(=O)[C@H](CCCNC(=N)N)NC(=O)[C@@H]1CCCN1C(=O)[C@H](CC(C)C)NC(=O)[C@H](Cc1ccc(O)cc1)NC(=O)[C@@H]1CCCN1C(=O)[C@@H]1CCCN1C(=O)C(CCCCN)NC(=O)C(CC(=O)O)NC(=O)C(N)C(C)C)C(=O)NC(Cc1ccc(O)cc1)C(=O)NC(CC(N)=O)C(=O)NC(CCCNC(=N)N)C(N)=O (some centres undefined) (H-[ξV][ξD][ξK]PPYLPRPRPPR[ξR][ξI][ξY][ξN][ξR]-NH2) |  | > 64 | > 64 | 1 (≈ 0.418 µM) |  | > 1000 |  |  |  |  |  |  |  |  |  | 4 (≈ 1.67 µM) | MIC [20]: 8 mg/L (≈ 3.35 µM)
CC[C@H](C)[C@H](NC(=O)[C@H](CCCNC(=N)N)NC(=O)[C@H](CCCNC(=N)N)NC(=O)[C@@H]1CCCN1C(=O)[C@@H]1CCCN1C(=O)[C@H](CCCNC(=N)N)NC(=O)[C@@H]1CCCN1C(=O)[C@H](CCCNC(=N)N)NC(=O)[C@@H]1CCCN1C(=O)[C@H](CC(C)C)NC(=O)[C@H](Cc1ccc(O)cc1)NC(=O)[C@@H]1CCCN1C(=O)[C@@H]1CCCN1C(=O)C(CCCCN)NC(=O)C(CC(=O)O)NC(=O)C(N)C(C)C)C(=O)N[C@@H](Cc1ccc(O)cc1)C(=O)N[C@@H](CC(N)=O)C(=O)N[C@@H](CCCNC(=N)N)C(N)=O (some centres undefined) (H-[ξV][ξD][ξK]PPYLPRPRPPRRIYNR-NH2) |  | > 64 | > 64 | 2 (≈ 0.837 µM) |  | > 1000 |  |  |  |  |  |  |  |  |  | 8 (≈ 3.35 µM) | 
CC(C)C[C@H](NC(=O)CN(CC(C)C)C(=O)[C@H](CC(C)C)NC(=O)CN(CCCCN)C(=O)[C@H](CC(C)C)NC(=O)CN(CC(C)C)C(=O)[C@H](CCCCN)NC(=O)CN(CC(C)C)C(=O)[C@H](CC(C)C)NC(=O)CN(CCCCN)C(=O)[C@@H](N)CCCCN)C(N)=O (H-K[Nlys]L[Nleu]K[Nleu]L[Nlys]L[Nleu]L-NH2) | > 32 |  | > 32 | 2 (≈ 1.51 µM) | > 32 |  | > 32 | > 32 | > 32 | > 64 | > 64 | > 64 | > 64 | 64 (≈ 48.4 µM) | 64 (≈ 48.4 µM) |  | MIC [22]: > 32 mg/L
